In PubChem BioAssay AID248 (DTP/NCI, 2004):
Values joined by “and” are separate entries in the source; they are usually repeats but may differ in a detail not shown here. Identical values can stand only once. Inconclusive results and toxic doses are left out.

Tested on: L1210 leukemia ip in BDF1 mice, survival T/C
Assay: NCI In Vivo Anticancer Drug Screen. Data for tumor model L1210 Leukemia (intraperitoneal) in B6D2F1 (BDF1) mice
Conditions: endpoint: mean survival time, higher = longer survival
Summary of the method: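 Survival endpoint. Drug-treated group vs vehicle group, expressed as T divided by C. Tumor passaged by transplantation.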

[1] = dose: 50.0 mg/kg/injection, schedule: Q01DX001 (ip), vehicle: carboxymethylcellulose (CMC)
[2] = dose: 200.0 mg/kg/injection, schedule: Q01DX001 (ip), vehicle: carboxymethylcellulose (CMC)
[3] = dose: 100.0 mg/kg/injection, schedule: Q01DX001 (ip), vehicle: carboxymethylcellulose (CMC)
[4] = dose: 100.0 mg/kg/injection, schedule: Q04DX002 (ip), vehicle: saline with Tween-80
[5] = dose: 100.0 mg/kg/injection, schedule: Q04DX003 (ip), vehicle: Klucel (hydroxypropylcellulose) (HPC)
[6] = dose: 200.0 mg/kg/injection, schedule: Q04DX003 (ip), vehicle: Klucel (hydroxypropylcellulose) (HPC)
[7] = dose: 400.0 mg/kg/injection, schedule: Q04DX003 (ip), vehicle: Klucel (hydroxypropylcellulose) (HPC)
[8] = dose: 100.0 mg/kg/injection, schedule: Q01DX001 (ip), vehicle: saline
[9] = dose: 100.0 mg/kg/injection, schedule: Q01DX009 (ip), vehicle: saline
[10] = dose: 200.0 mg/kg/injection, schedule: Q01DX001 (ip), vehicle: saline
[11] = dose: 200.0 mg/kg/injection, schedule: Q01DX009 (ip), vehicle: saline
[12] = dose: 400.0 mg/kg/injection, schedule: Q01DX001 (ip), vehicle: saline
[13] = dose: 25.0 mg/kg/injection, schedule: Q04DX002 (ip), vehicle: Klucel (hydroxypropylcellulose) (HPC)
[14] = dose: 50.0 mg/kg/injection, schedule: Q04DX002 (ip), vehicle: Klucel (hydroxypropylcellulose) (HPC)
[15] = dose: 100.0 mg/kg/injection, schedule: Q04DX002 (ip), vehicle: Klucel (hydroxypropylcellulose) (HPC)
[16] = dose: 200.0 mg/kg/injection, schedule: Q04DX002 (ip), vehicle: saline with Tween-80
[17] = dose: 400.0 mg/kg/injection, schedule: Q04DX002 (ip), vehicle: saline with Tween-80
[18] = dose: 100.0 mg/kg/injection, schedule: Q01DX009 (ip), vehicle: saline with Tween-80
[19] = dose: 200.0 mg/kg/injection, schedule: Q01DX009 (ip), vehicle: saline with Tween-80
[20] = dose: 400.0 mg/kg/injection, schedule: Q01DX009 (ip), vehicle: saline with Tween-80
[21] = dose: 100.0 mg/kg/injection, schedule: Q04DX003 (ip), vehicle: saline with Tween-80
[22] = dose: 200.0 mg/kg/injection, schedule: Q04DX003 (ip), vehicle: saline with Tween-80
[23] = dose: 400.0 mg/kg/injection, schedule: Q04DX003 (ip), vehicle: saline with Tween-80
[24] = dose: 400.0 mg/kg/injection, schedule: Q01DX001 (ip), vehicle: carboxymethylcellulose (CMC)

`C[n+]1ccc(Nc2ccc(NC(=O)c3ccc(N)cc3)cc2)cc1` was tested, and the T/C (dose: 12.5 mg/kg/injection, schedule: Q01DX009 (ip), vehicle: water) was 117 % of control, the T/C (dose: 25.0 mg/kg/injection, schedule: Q01DX009 (ip), vehicle: water) was 107 % of control and the T/C (dose: 50.0 mg/kg/injection, schedule: Q01DX009 (ip), vehicle: water) was 112 % of control.
`C[Si](C)(C)Cc1ccccc1` was tested, and the T/C [1] was 93 % of control and the T/C [2] was 95 % of control.
For `CC1(C)C2CCC1(CS(=O)(=O)Cl)C(=O)C2` (stereo not drawn), the T/C [1] was 100 % of control, the T/C [3] was 97 % of control and the T/C [2] was 97 % of control.
For `O=C(CCN1CCCC1)c1ccc2ccccc2c1`, the T/C (dose: 25.0 mg/kg/injection, schedule: Q04DX002 (ip), vehicle: saline with Tween-80) was 97 % of control, the T/C (dose: 50.0 mg/kg/injection, schedule: Q04DX002 (ip), vehicle: saline with Tween-80) was 97 % of control and the T/C [4] was 100 % of control and 86 % of control.
With `CCCCCCCCOc1ccc(C(=O)c2ccccc2)c(O)c1` the T/C (dose: 100.0 mg/kg/injection, schedule: Q01DX009 (ip), vehicle: Klucel (hydroxypropylcellulose) (HPC)) was 100 % of control, the T/C [5] was 94 % of control and the T/C (dose: 200.0 mg/kg/injection, schedule: Q01DX009 (ip), vehicle: Klucel (hydroxypropylcellulose) (HPC)) was 101 % of control. For the same compound, the T/C [6] was 96 % of control, the T/C (dose: 400.0 mg/kg/injection, schedule: Q01DX009 (ip), vehicle: Klucel (hydroxypropylcellulose) (HPC)) was 94 % of control and the T/C [7] was 94 % of control.
In the case of `OCC(O)CCBr` (stereo not drawn), the T/C [8] is reported as 100 % of control, the T/C [9] is reported as 107 % of control and the T/C [10] is reported as 105 % of control. The T/C [11] was 115 % of control and the T/C [12] was 108 % of control.
With `COc1cc(Cn2cccc2C=O)c([N+](=O)[O-])cc1OC` the T/C [13] was 89 % of control, the T/C [14] was 101 % of control and the T/C [15] was 86 % of control.
With `COc1ccc(OC)c(NC(=O)Nc2cccc(F)c2)c1` the T/C (dose: 100.0 mg/kg/injection, schedule: Q01DX009 (ip), vehicle: gum acacia) was 90 % of control and the T/C (dose: 200.0 mg/kg/injection, schedule: Q01DX009 (ip), vehicle: gum acacia) was 92 % of control.
In the case of `C=Cc1c[nH]c(=O)[nH]c1=O`, the T/C [13] is reported as 94 % of control, the T/C [14] is reported as 94 % of control and the T/C [15] is reported as 102 % of control.
`Ic1ccc(NC2=NCCN2)c2ccccc12` was tested, and the T/C (dose: 25.0 mg/kg/injection, schedule: Q04DX003 (ip), vehicle: Klucel (hydroxypropylcellulose) (HPC)) was 111 % of control, the T/C (dose: 50.0 mg/kg/injection, schedule: Q04DX003 (ip), vehicle: Klucel (hydroxypropylcellulose) (HPC)) was 100 % of control and the T/C [5] was 93 % of control and 91 % of control.
For `COC(OC)c1[nH]c(=S)[nH]c(=O)c1Cc1cc(C)ccc1C`, the T/C [9] was 99 % of control, the T/C [11] was 101 % of control and the T/C (dose: 400.0 mg/kg/injection, schedule: Q01DX009 (ip), vehicle: saline) was 103 % of control.
With `COc1cc(OC)c(-c2nc3ccc(C)cc3c(=O)o2)cc1OC` the T/C [4] was 103 % of control, the T/C [16] was 100 % of control and the T/C [17] was 103 % of control.
`Cc1ccc(S(=O)(=O)N(c2cc(C)ccc2C)c2ccccc2N)cc1` was tested, and the T/C (dose: 50.0 mg/kg/injection, schedule: Q01DX001 (ip), vehicle: saline) was 93 % of control, the T/C [8] was 95 % of control and the T/C [10] was 98 % of control. For the same compound, the T/C [12] was 93 % of control.
In the case of `CS(=O)(=O)OCCN(CCOS(C)(=O)=O)c1ccc(/C=N/Nc2ccc([N+](=O)[O-])cc2[N+](=O)[O-])cc1`, the T/C [8] is reported as 92 % of control, the T/C [18] is reported as 96 % of control and the T/C (dose: 100.0 mg/kg/injection, schedule: Q04DX003 (ip), vehicle: saline) is reported as 91 % of control. The T/C [19] was 91 % of control, the T/C (dose: 200.0 mg/kg/injection, schedule: Q04DX003 (ip), vehicle: saline) was 90 % of control and the T/C [12] was 89 % of control. The T/C [20] was 93 % of control and the T/C (dose: 400.0 mg/kg/injection, schedule: Q04DX003 (ip), vehicle: saline) was 87 % of control.
With `O=[N+]([O-])c1ccnc(NC2CCCCC2)c1` the T/C [8] was 97 % of control, the T/C [10] was 96 % of control and the T/C [12] was 96 % of control.
With `COC(=O)C1C2C=CC(C2)C1C(=O)OC` (stereo not drawn) the T/C [21] was 99 % of control, the T/C [22] was 105 % of control and the T/C [23] was 92 % of control.
With `C[N+](C)(C)CCCC#CC[N+]1(C)CCOCC1` the T/C (dose: 8.4 mg/kg/injection, schedule: Q01DX009 (ip), vehicle: saline) was 151 % of control, the T/C (dose: 14.0 mg/kg/injection, schedule: Q01DX009 (ip), vehicle: saline) was 197 % of control and the T/C (dose: 39.0 mg/kg/injection, schedule: Q01DX009 (ip), vehicle: saline) was 96 % of control. The T/C (dose: 65.0 mg/kg/injection, schedule: Q07DX009 (ip), vehicle: saline) was 157 % of control, the T/C (dose: 108.0 mg/kg/injection, schedule: Q07DX009 (ip), vehicle: saline) was 190 % of control and the T/C (dose: 180.0 mg/kg/injection, schedule: Q07DX009 (ip), vehicle: saline) was 177 % of control. For the same compound, the T/C (dose: 300.0 mg/kg/injection, schedule: Q07DX009 (ip), vehicle: saline) was 123 % of control.
In the case of `CSc1ccc(OC(=O)Oc2ccc(SC)cc2)cc1`, the T/C [3] is reported as 97 % of control, the T/C [2] is reported as 95 % of control and the T/C [24] is reported as 92 % of control.
`Cc1cc([N+](=O)[O-])ccc1I` was tested, and the T/C [1] was 101 % of control, the T/C [3] was 95 % of control and the T/C [2] was 95 % of control. For the same compound, the T/C [24] was 90 % of control.
With `CC(C1CCCC1)C1CCCC1` the T/C [4] was 96 % of control, the T/C [16] was 90 % of control and the T/C [17] was 109 % of control.
In the case of `O=c1[nH]c2ccccc2nc1CBr`, the T/C (dose: 12.5 mg/kg/injection, schedule: Q04DX003 (ip), vehicle: saline with Tween-80) is reported as 94 % of control, the T/C (dose: 25.0 mg/kg/injection, schedule: Q04DX003 (ip), vehicle: saline with Tween-80) is reported as 89 % of control and the T/C (dose: 50.0 mg/kg/injection, schedule: Q04DX003 (ip), vehicle: saline with Tween-80) is reported as 86 % of control.
For `CCC1(/C(C)=C/C(C)C)C(=O)NC(=O)NC1=O`, the T/C (dose: 5.0 mg/kg/injection, schedule: Q01DX001 (ip), vehicle: saline) was 96 % of control and the T/C (dose: 10.0 mg/kg/injection, schedule: Q01DX001 (ip), vehicle: saline) was 101 % of control.
With `CC(=O)CCCC(C)C1CCC2C3CC=C4CC(O)CCC4(C)C3CCC12C` (stereo not drawn) the T/C (dose: 75.0 mg/kg/injection, schedule: Q01DX009 (sc), vehicle: steriod suspending solution) was 99 % of control, the T/C (dose: 100.0 mg/kg/injection, schedule: Q01DX001 (sc), vehicle: steriod suspending solution) was 105 % of control and the T/C (dose: 150.0 mg/kg/injection, schedule: Q01DX009 (sc), vehicle: steriod suspending solution) was 94 % of control. For the same compound, the T/C (dose: 200.0 mg/kg/injection, schedule: Q01DX001 (sc), vehicle: steriod suspending solution) was 101 % of control, the T/C (dose: 300.0 mg/kg/injection, schedule: Q01DX009 (sc), vehicle: steriod suspending solution) was 92 % of control and the T/C (dose: 400.0 mg/kg/injection, schedule: Q01DX001 (sc), vehicle: steriod suspending solution) was 101 % of control.
For `Cn1c(=O)c2c(ncn2CC(O)CO)n(C)c1=O` (stereo not drawn) (tested in a mixture with another compound), the T/C [21] was 101 % of control, the T/C [22] was 98 % of control and the T/C [23] was 95 % of control.
In the case of `CC1(C)C=C(C(Cl)c2ccccc2)C(=O)c2ccccc21` (stereo not drawn), the T/C [5] is reported as 95 % of control, the T/C [6] is reported as 101 % of control and the T/C [7] is reported as 101 % of control.
`Cc1c(Cl)cccc1NC(=O)N1CCCC(C)C1` (stereo not drawn) was tested, and the T/C [18] was 94 % of control and 90 % of control, the T/C [4] was 96 % of control and 89 % of control and the T/C [21] was 96 % of control. The T/C [19] was 90 % of control, the T/C [16] was 86 % of control and 89 % of control and the T/C [22] was 102 % of control. The T/C [20] was 93 % of control and 95 % of control, the T/C [17] was 93 % of control and 89 % of control and the T/C [23] was 97 % of control.
With `C=C(C)C1CC(=O)C2(C)OC2C1` (stereo not drawn) the T/C (dose: 75.0 mg/kg/injection, schedule: Q01DX001 (ip), vehicle: other) was 102 % of control, the T/C (dose: 150.0 mg/kg/injection, schedule: Q01DX001 (ip), vehicle: other) was 98 % of control and the T/C (dose: 300.0 mg/kg/injection, schedule: Q01DX001 (ip), vehicle: other) was 94 % of control.
